Experimental data from patent US8455485B2, “Pyrazolo pyridine derivatives as NADPH oxidase inhibitors” (Genkyotex SA, priority 2008, dated 2013).

tested on: NOX activity; test: Amplex Red measurement of extracellular hydrogen peroxide (NOX activity) using DMSO-differentiated HL60 cells; type: cell-based, human; details: Amplex red, DMSO-differentiated HL60 cells; compound concentration not stated
Description: Human acute myeloid leukemia cell line HL-60 was cultured in RPMI 1640 (Invitrogen) supplemented with 10% heat-inactivated calf serum, 2 mM glutamine, 100 U/mL penicillin (Sigma), and 100 μg streptomycin (Sigma) at 37° C. under a humidified atmosphere of 5% CO2. HL60 differentiation to the neutrophil phenotype was triggered by adding Me2SO (final concentration 1.25% v/v for 6 days) to the culture medium.
Extracellular hydrogen peroxide was measured using Amplex UltraRed (Molecular Probes). Cells were trypsinized (1× Trypsin-EDTA), collected by centrifugation, and resuspended in HBSS supplemented with 1% glucose. Cells were seeded into black 96-well plates at a density of 50′000 cells in 200 μl testing buffer (HBSS 1% glucose containing 0.005 U/mL horseradish peroxidase (Roche) and 50 μM Amplex Red in the presence or absence of compounds according to the invention. As a control, DPI was included at a final concentration of 10 μM The plates were placed in the fluorescent Optima Fluorescent plate reader and kept at 37° C. during 20 min Fluorescence was measured for […] with excitation and emission wavelengths of 544 nm and 590 nm respectively. NOX activities were expressed as % of the activity in control cells. Residual activity of DPI-treated cells was usually <10%.
The Table 2 below summarizes the percentage of inhibition of NOX activity as measured by Amplex red using DMSO-differentiated HL60 cells as described above: […]

Point of comparison: `COc1cccc(N2CCN(Cc3c4c(=O)n(-c5ccccc5Cl)[nH]c4cc(=O)n3C)CC2)c1` [Compound 163, 2-(2-chlorophenyl)-4-{[4-(3-methoxyphenyl)piperazin-1-yl]methyl}-5-methyl-1H-pyrazolo[4,3-c]pyridine-3,6(2H,5H)-dione], “Inhibition (%) of NOX activity” value 80%. Against it:
- CCCCc1c2c(=O)n(-c3ccc(F)cc3Cl)[nH]c2cc(=O)n1CCOC [Compound 9, 4-butyl-2-(2-chloro-4-fluorophenyl)-5-(2-methoxyethyl)-1H-pyrazolo[4,3-c]pyridine-3,6(2H,5H)-dione] — lower, 76%
- Cn1[nH]c2cc(=O)n(Cc3ccc(Cl)cc3)c(CN3CCCC3)c2c1=O [Compound 52, 5-(4-chlorobenzyl)-2-methyl-4-(pyrrolidin-1-ylmethyl)-1H-pyrazolo[4,3-c]pyridine-3,6(2H,5H)-dione] — higher, 90%
- CCCCc1c2c(=O)n(-c3ccc(OCc4ccccc4)cc3)[nH]c2cc(=O)n1Cc1ccc(Cl)cc1 [Compound 4, 2-[4-(benzyloxy)phenyl]-4-butyl-5-(4-chlorobenzyl)-1H-pyrazolo[4,3-c]pyridine-3,6(2H,5H)-dione] — lower, 69%
- COc1cccc(CN(C)Cc2c3c(=O)n(-c4ccccc4Cl)[nH]c3cc(=O)n2C)c1 [Compound 143, 2-(2-chlorophenyl)-4-{[(3-methoxybenzyl) (methyl)amino]methyl}-5-methyl-1H-pyrazolo [4,3-c]pyridine-3,6 (2H,5H)-dione] — higher, 82%
- O=c1c2c(COCc3ccccc3)n(CC3CCCNC3)c(=O)cc2[nH]n1-c1ccccc1Cl (centres unmarked) [Compound 130, 4-[(benzyloxy)methyl]-2-(2-chlorophenyl)-5-(piperidin-3-ylmethyl)-1H-pyrazolo[4,3-c] pyridine-3,6(2H,5H)-dione] — the same, 80%
- Cn1c(C2CN(Cc3ccccc3)CCO2)c2c(=O)n(-c3ccccc3Cl)[nH]c2cc1=O (centres unmarked) [Compound 84, 4-(4-benzylmorpholin-2-yl)-2-(2-chloro-phenyl)-5-methyl-1H-pyrazolo [4,3-c]pyridine-3,6 (2H,5H)-dione] — lower, 78%
- Cn1c(CCCN2CCc3ccccc32)c2c(=O)n(-c3ccccc3Cl)[nH]c2cc1=O [Compound 123, 2-(2-chloro-phenyl)-4-[3-(2,3-dihydro-1H-indol-1-yl)propyl]-5-methyl-1H-pyrazolo[4,3-c] pyridine-3,6(2H,5H)-dione] — higher, 90%
- CC(=O)Nc1cccc(Cn2c(CN3CCCC3)c3c(=O)n(-c4ccc(OCc5ccccc5)cc4)[nH]c3cc2=O)c1 [Compound 53, N-[3-({2-[4-(benzyloxy)phenyl]-3,6-dioxo-4-(pyrrolidin-1-ylmethyl)-1,2,3,6-tetrahydro-5H-pyrazolo[4,3-c]pyridin-5-yl}methyl)phenyl] acetamide] — higher, 86%
- CCCCc1c2c(=O)n(-c3ccc(F)cc3Cl)[nH]c2cc(=O)n1Cc1ccccc1CN1CCOCC1 [Compound 14, 4-butyl-2-(2-chloro-4-fluorophenyl)-5-[2-(morpholin-4-ylmethyl)benzyl]-1H-pyrazolo[4,3-c]pyridine-3,6(2H,5H)-dione] — higher, 86%
- CCCCc1c2c(=O)n(C)[nH]c2cc(=O)n1Cc1ccccn1 [Compound 3, 4-butyl-2-methyl-5-(pyridin-2-ylmethyl)-1H-pyrazolo[4,3-c]pyridine-3,6(2H,5H)-dione] — higher, 84%
- COCCn1c(COc2ccc(F)cc2)c2c(=O)n(-c3ccccc3Cl)[nH]c2cc1=O [Compound 58, 2-(2-chlorophenyl)-4-[(4-fluorophenoxy)methyl]-5-(2-methoxyethyl)-1H-pyrazolo[4,3-c]pyridine-3,6(2H,5H)-dione] — the same, 80%
- COCCn1c(CN2CCCC2)c2c(=O)n(Cc3ccccc3)[nH]c2cc1=O [Compound 31, 2-benzyl-5-(2-methoxyethyl)-4-(pyrrolidin-1-ylmethyl)-1H-pyrazolo [4,3-c]pyridine-3,6(2H,5H)-dione] — higher, 82%
- Cn1c(COC(c2ccccc2)C(F)(F)F)c2c(=O)n(-c3ccccc3Cl)[nH]c2cc1=O (centres unmarked) [Compound 108, 2-(2-chlorophenyl)-5-methyl-4-[(2,2,2-trifluoro-1-phenylethoxy)methyl]-1H-pyrazolo[4,3-c] pyridine-3,6(2H,5H)-dione] — lower, 75%
- Cn1c(COCc2cccc(Cl)c2)c2c(=O)n(-c3ccccc3Cl)[nH]c2cc1=O [Compound 139, 4-{[(3-chlorobenzyl)oxy]methyl}-2-(2-chlorophenyl)-5-methyl-1H-pyrazolo[4,3-c] pyridine-3,6(2H,5H)-dione] — lower, 76%
- COCCCn1c(CN(C)Cc2ccccc2)c2c(=O)n(-c3ccc(F)cc3Cl)[nH]c2cc1=O [Compound 12, 4-{[benzyl(methyl)amino]methyl}-2-(2-chloro-4-fluorophenyl)-5-(3-methoxypropyl)-1H-pyrazolo[4,3-c]pyridine-3,6(2H,5H)-dione] — lower, 79%
- CN(Cc1c2c(=O)n(-c3ccccc3Cl)[nH]c2cc(=O)n1CCc1ccccn1)c1ccccc1 [Compound 93, 2-(2-chlorophenyl)-4-{[methyl(phenyl)amino]methyl}-5-(2-pyri-din-2-ylethyl)-1H-pyrazolo[4,3-c] pyridine-3,6(2H,5H)-dione] — the same, 80%
- CCCCc1c2c(=O)n(-c3ccc(F)cc3Cl)[nH]c2cc(=O)n1Cc1ccco1 [Compound 7, 4-butyl-2-(2-chloro-4-fluorophenyl)-5-(furan-2-ylmethyl)-1H-pyrazolo[4,3-c]pyridine-3,6(2H,5H)-dione] — higher, 91%
- CCN(CC)CCCn1c(COCc2ccccc2)c2c(=O)n(-c3ccccc3Cl)[nH]c2cc1=O [Compound 102, 4-[(benzyloxy)methyl]-2-(2-chlorophenyl)-5-[3-(diethylamino)propyl]-1H-pyrazolo[4,3-c] pyridine-3,6(2H,5H)-dione] — the same, 80%
- CCOCCCn1c(CN2CCCC2)c2c(=O)n(-c3ccc(F)cc3Cl)[nH]c2cc1=O [Compound 45, 2-(2-chloro-4-fluoro-phenyl)-5-(3-ethoxypropyl)-4-(pyrrolidin-1-ylmethyl)-1H-pyrazolo[4,3-c] pyridine-3,6(2H,5H)-dione] — higher, 86%
- Cn1c(COc2ccc(Cl)cc2)c2c(=O)n(-c3ccccc3Cl)[nH]c2cc1=O [Compound 92, 4-[(4-chlorophenoxy)methyl]-2-(2-chlorophenyl)-5-methyl-1H-pyrazolo[4,3-c] pyridine-3,6(2H,5H)-dione] — lower, 76%
- CN(Cc1cccnc1)Cc1c2c(=O)n(-c3ccccc3Cl)[nH]c2cc(=O)n1C [Compound 147, 2-(2-chlorophenyl)-5-methyl-4-{[methyl (pyridin-3-ylmethyl)amino]methyl}-1H-pyrazolo[4,3-c] pyridine-3,6(2H,5H)-dione] — the same, 80%
- CN(CCCc1c2c(=O)n(-c3ccccc3Cl)[nH]c2cc(=O)n1C)c1ccccc1 [Compound 120, 2-(2-chlorophenyl)-5-methyl-4-{3-[methyl (phenyl)amino]propyl}-1H-pyrazolo[4,3-c] pyridine-3,6(2H,5H)-dione] — lower, 77%
- Cn1[nH]c2cc(=O)n(Cc3ccccn3)c(CCCOc3ccccc3)c2c1=O [Compound 30, 2-methyl-4-(3-phenoxypropyl)-5-(pyridin-2-ylmethyl)-1H-pyrazolo [4,3-c]pyridine-3,6(2H,5H)-dione] — higher, 92%
- O=c1c2c(COCc3ccccc3)n(Cc3cnccn3)c(=O)cc2[nH]n1-c1ccccc1Cl [Compound 113, 4-[(benzyloxy)methyl]-2-(2-chlorophenyl)-5-(pyrazin-2-yl-methyl)-1H-pyrazolo[4,3-c]pyridine-3,6(2H,5H)-dione] — higher, 87%
- Cn1[nH]c2cc(=O)n(Cc3ccccn3)c(COCc3ccccc3)c2c1=O [Compound 63, 4-[(benzyloxy)methyl]-2-methyl-5-(pyridin-2-ylmethyl)-1H-pyrazolo [4,3-c]pyridine-3,6 (2H,5H)-dione] — higher, 89%
- CCOCCCn1c(CN2CCCC2)c2c(=O)n(Cc3ccccc3)[nH]c2cc1=O [Compound 47, 2-benzyl-5-(3-ethoxypropyl)-4-(pyrrolidin-1-ylmethyl)-1H-pyrazolo[4,3-c]pyridine-3,6(2H,5H)-dione] — higher, 89%
- Cn1[nH]c2cc(=O)n(Cc3cccc(N4CCOCC4)n3)c(COc3ccc(F)cc3)c2c1=O [Compound 65, 4-[(4-fluorophenoxy)methyl]-2-methyl-5-[(6-morpholin-4-ylpyridin-2-yl)methyl]-1H-pyrazolo[4,3-c] pyridine-3,6(2H,5H)-dione] — the same, 80%
- CN(C)C(=O)Cn1c(COCc2ccccc2)c2c(=O)n(-c3ccccc3Cl)[nH]c2cc1=O [Compound 116, 2-{4-[(benzyloxy)methyl]-2-(2-chlorophenyl)-3,6-dioxo-1,2,3,6-tetrahydro-5H-pyrazolo[4,3-c]pyridin-5-yl)-N,N dimethyl acetamide] — higher, 81%
